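Where inhibition never reached the appropriate level, the endpoint shown equals the highest concentration tested. Otherwise, values were interpolated linearly from a five-concentration, 48-hour dose response in 96-well plates. Abbreviation: GI50, concentration required for 50% inhibition of growth. TGI is the concentration that stops growth completely.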
What was measured:
Assay in all cases: growth of human tumour cells (NCI), 48 h
786-0 renal = test system: 786-0 renal
A498 renal = test system: A498 renal
A549 NSCLC = test system: A549 NSCLC
ACHN renal = test system: ACHN renal
BT-549 breast = test system: BT-549 breast
CAKI-1 renal = test system: CAKI-1 renal
CCRF-CEM leukemia = test system: CCRF-CEM leukemia
DU-145 prostate = test system: DU-145 prostate
EKVX NSCLC = test system: EKVX NSCLC
HCC-2998 colon = test system: HCC-2998 colon
HCT-116 colon = test system: HCT-116 colon
HCT-15 colon = test system: HCT-15 colon
HL-60(TB) leukemia = test system: HL-60(TB) leukemia
HOP-62 NSCLC = test system: HOP-62 NSCLC
HOP-92 NSCLC = test system: HOP-92 NSCLC
HS 578T breast = test system: HS 578T breast
HT29 colon = test system: HT29 colon
IGROV1 ovarian = test system: IGROV1 ovarian
K-562 leukemia = test system: K-562 leukemia
KM12 colon = test system: KM12 colon
LOX IMVI melanoma = test system: LOX IMVI melanoma
M14 melanoma = test system: M14 melanoma
MALME-3M melanoma = test system: MALME-3M melanoma
MCF7 breast = test system: MCF7 breast
MDA-MB-231 breast = test system: MDA-MB-231 breast
MDA-MB-435 = test system: MDA-MB-435
MOLT-4 leukemia = test system: MOLT-4 leukemia
NCI-H226 lung = test system: NCI-H226 lung
NCI-H23 lung = test system: NCI-H23 lung
NCI-H460 lung = test system: NCI-H460 lung
NCI-H522 lung = test system: NCI-H522 lung
NCI/ADR-RES ovarian = test system: NCI/ADR-RES ovarian
OVCAR-3 ovarian = test system: OVCAR-3 ovarian
OVCAR-4 ovarian = test system: OVCAR-4 ovarian
OVCAR-5 ovarian = test system: OVCAR-5 ovarian
OVCAR-8 ovarian = test system: OVCAR-8 ovarian
PC-3 prostate = test system: PC-3 prostate
RPMI-8226 leukemia = test system: RPMI-8226 leukemia
RXF 393 renal = test system: RXF 393 renal
SF-268 CNS = test system: SF-268 CNS
SF-295 CNS = test system: SF-295 CNS
SF-539 CNS = test system: SF-539 CNS
SK-MEL-2 melanoma = test system: SK-MEL-2 melanoma
SK-MEL-28 melanoma = test system: SK-MEL-28 melanoma
SK-MEL-5 melanoma = test system: SK-MEL-5 melanoma
SK-OV-3 ovarian = test system: SK-OV-3 ovarian
SN12C renal = test system: SN12C renal
SNB-19 CNS = test system: SNB-19 CNS
SR leukemia = test system: SR leukemia
SW-620 colon = test system: SW-620 colon
T-47D breast = test system: T-47D breast
TK-10 renal = test system: TK-10 renal
U251 CNS = test system: U251 CNS
UACC-257 melanoma = test system: UACC-257 melanoma
UACC-62 melanoma = test system: UACC-62 melanoma
UO-31 renal = test system: UO-31 renal
COLO 205 colon = test system: COLO 205 colon
SNB-75 CNS = test system: SNB-75 CNS

## C=C(C)[C@@H]1CC[C@]2(C(=O)O)CC[C@]3(C)[C@H](CC[C@@H]4[C@@]5(C)C/C(=C/c6cccc(I)c6)C(=O)C(C)(C)[C@@H]5CC[C@]43C)[C@@H]12
786-0 renal
  GI50: 2.46 µM
  TGI: 6.72 µM
A498 renal
  GI50: 2.1 µM
  TGI: 6.72 µM
A549 NSCLC
  GI50: 1.49 µM
  TGI: 6.31 µM
ACHN renal
  GI50: 2.62 µM
  TGI: 11 µM
BT-549 breast
  GI50: 2.2 µM
  TGI: 6.75 µM
CAKI-1 renal
  GI50: 2.22 µM
  TGI: 10.7 µM
CCRF-CEM leukemia
  GI50: 2.74 µM
  TGI: 10.3 µM
DU-145 prostate
  GI50: 2.63 µM
  TGI: 7.84 µM
EKVX NSCLC
  GI50: 2.65 µM
  TGI: 12.7 µM
HCC-2998 colon
  GI50: 2.69 µM
  TGI: 9.69 µM
HCT-116 colon
  GI50: 1.78 µM
  TGI: 3.53 µM
HCT-15 colon
  GI50: 2.63 µM
  TGI: 10.2 µM
HL-60(TB) leukemia
  GI50: 2.6 µM
  TGI: 8.58 µM
HOP-62 NSCLC
  GI50: 3.24 µM
  TGI: 12.6 µM
HOP-92 NSCLC
  GI50: 1.72 µM
  TGI: 5.28 µM
HS 578T breast
  GI50: 2.51 µM
  TGI: 8.75 µM
HT29 colon
  GI50: 2.9 µM
  TGI: 9.76 µM
IGROV1 ovarian
  GI50: 2.57 µM
  TGI: 8.7 µM
K-562 leukemia
  GI50: 2.37 µM
  TGI: 49.5 µM
KM12 colon
  GI50: 1.59 µM
  TGI: 3.6 µM
LOX IMVI melanoma
  GI50: 1.72 µM
  TGI: 3.58 µM
M14 melanoma
  GI50: 2.14 µM
  TGI: 5.21 µM
MALME-3M melanoma
  GI50: 2.46 µM
  TGI: 6.65 µM
MCF7 breast
  GI50: 2.64 µM
  TGI: 10.5 µM
MDA-MB-231 breast
  GI50: 2.83 µM
  TGI: 10 µM
MDA-MB-435
  GI50: 2.98 µM
  TGI: 9.74 µM
MOLT-4 leukemia
  GI50: 2.85 µM
  TGI: 9.45 µM
NCI-H226 lung
  GI50: 2.64 µM
  TGI: 10.1 µM
NCI-H23 lung
  GI50: 2.49 µM
  TGI: 8.44 µM
NCI-H460 lung
  GI50: 1.9 µM
  TGI: 4.27 µM
NCI-H522 lung
  GI50: 2.1 µM
  TGI: 6.94 µM
NCI/ADR-RES ovarian
  GI50: 3.22 µM
  TGI: 14.2 µM
OVCAR-3 ovarian
  GI50: 1.78 µM
  TGI: 3.7 µM
OVCAR-4 ovarian
  GI50: 2.38 µM
  TGI: 8.28 µM
OVCAR-5 ovarian
  GI50: 3.19 µM
  TGI: 14.7 µM
OVCAR-8 ovarian
  GI50: 2.87 µM
  TGI: 14.3 µM
PC-3 prostate
  GI50: 2.2 µM
  TGI: 10.6 µM
RPMI-8226 leukemia
  GI50: 2.07 µM
  TGI: 7.06 µM
RXF 393 renal
  GI50: 2.88 µM
  TGI: 11.8 µM
SF-268 CNS
  GI50: 3.17 µM
  TGI: 15.1 µM
SF-295 CNS
  GI50: 2.91 µM
  TGI: 12.6 µM
SF-539 CNS
  GI50: 2.17 µM
  TGI: 5.52 µM
SK-MEL-2 melanoma
  GI50: 2.4 µM
  TGI: 6.94 µM
SK-MEL-28 melanoma
  GI50: 3.09 µM
  TGI: 10.1 µM
SK-MEL-5 melanoma
  GI50: 1.8 µM
  TGI: 3.44 µM
SK-OV-3 ovarian
  GI50: 3.27 µM
  TGI: 11.9 µM
SN12C renal
  GI50: 2.93 µM
  TGI: 11.7 µM
SNB-19 CNS
  GI50: 3.28 µM
  TGI: 17.5 µM
SR leukemia
  GI50: 2.71 µM
  TGI: 12.5 µM
SW-620 colon
  GI50: 1.95 µM
  TGI: 4.58 µM
T-47D breast
  GI50: 2.9 µM
  TGI: 19 µM
TK-10 renal
  GI50: 3.25 µM
  TGI: 20.6 µM
U251 CNS
  GI50: 1.71 µM
  TGI: 3.91 µM
UACC-257 melanoma
  GI50: 2.51 µM
  TGI: 8.23 µM
UACC-62 melanoma
  GI50: 1.82 µM
  TGI: 4.16 µM
UO-31 renal
  GI50: 1.72 µM
  TGI: 5.17 µM

## Fc1ccc([C@@H]2CCNC[C@H]2COc2ccc3c(c2)OCO3)cc1
786-0 renal
  GI50: 12.3 µM
  TGI: 25.7 µM
A498 renal
  GI50: 5.52 µM
  TGI: 19.2 µM
A549 NSCLC
  GI50: 14.6 µM
  TGI: 29 µM
ACHN renal
  GI50: 10.8 µM
  TGI: 24 µM
BT-549 breast
  GI50: 12.2 µM
  TGI: 26.1 µM
CAKI-1 renal
  GI50: 12.1 µM
  TGI: 25.3 µM
COLO 205 colon
  GI50: 1.91 µM
  TGI: 3.69 µM
DU-145 prostate
  GI50: 13.1 µM
  TGI: 26.5 µM
HCC-2998 colon
  GI50: 2.1 µM
  TGI: 4.39 µM
HCT-116 colon
  GI50: 6.07 µM
  TGI: 21.8 µM
HCT-15 colon
  GI50: 11 µM
  TGI: 27 µM
HL-60(TB) leukemia
  GI50: 4.95 µM
  TGI: 19.9 µM
HOP-62 NSCLC
  GI50: 13.3 µM
  TGI: 27.4 µM
HOP-92 NSCLC
  GI50: 1.62 µM
  TGI: 12.8 µM
HS 578T breast
  GI50: 19.8 µM
  TGI: 62.3 µM
HT29 colon
  GI50: 3.52 µM
  TGI: 13.9 µM
IGROV1 ovarian
  GI50: 7.05 µM
  TGI: 20.3 µM
K-562 leukemia
  GI50: 2.32 µM
  TGI: 6.24 µM
KM12 colon
  GI50: 3.86 µM
  TGI: 14.1 µM
M14 melanoma
  GI50: 2.93 µM
  TGI: 11.1 µM
MALME-3M melanoma
  GI50: 2.68 µM
  TGI: 6.12 µM
MCF7 breast
  GI50: 3.23 µM
  TGI: 14.6 µM
MDA-MB-231 breast
  GI50: 3.07 µM
  TGI: 15 µM
MDA-MB-435
  GI50: 2.31 µM
  TGI: 7.96 µM
NCI-H226 lung
  GI50: 13.7 µM
  TGI: 29.9 µM
NCI-H23 lung
  GI50: 15.4 µM
  TGI: 32.5 µM
NCI-H460 lung
  GI50: 5.51 µM
  TGI: 18.6 µM
NCI-H522 lung
  GI50: 12 µM
  TGI: 25.4 µM
NCI/ADR-RES ovarian
  GI50: 14 µM
  TGI: 30 µM
OVCAR-3 ovarian
  GI50: 10.5 µM
  TGI: 22.8 µM
OVCAR-4 ovarian
  GI50: 10.6 µM
  TGI: 23.1 µM
OVCAR-5 ovarian
  GI50: 14.3 µM
  TGI: 28.4 µM
PC-3 prostate
  GI50: 3.83 µM
  TGI: 17.2 µM
RPMI-8226 leukemia
  GI50: 2.4 µM
  TGI: 8.9 µM
RXF 393 renal
  GI50: 5.28 µM
  TGI: 20.1 µM
SF-268 CNS
  GI50: 10.8 µM
  TGI: 23.5 µM
SF-295 CNS
  GI50: 4.07 µM
  TGI: 17.1 µM
SF-539 CNS
  GI50: 12.8 µM
  TGI: 25.6 µM
SK-MEL-2 melanoma
  GI50: 5.72 µM
  TGI: 18.5 µM
SK-MEL-28 melanoma
  GI50: 5.96 µM
  TGI: 19 µM
SK-MEL-5 melanoma
  GI50: 4.42 µM
  TGI: 17 µM
SK-OV-3 ovarian
  GI50: 12.7 µM
  TGI: 25.7 µM
SN12C renal
  GI50: 5.79 µM
  TGI: 18.9 µM
SNB-19 CNS
  GI50: 12 µM
  TGI: 25.4 µM
SNB-75 CNS
  GI50: 1.32 µM
  TGI: 7.61 µM
SR leukemia
  GI50: 2.02 µM
  TGI: 5.34 µM
SW-620 colon
  GI50: 10.6 µM
  TGI: 24.2 µM
T-47D breast
  GI50: 5.53 µM
  TGI: 20.4 µM
TK-10 renal
  GI50: 11.3 µM
  TGI: 23.8 µM
U251 CNS
  GI50: 8.18 µM
  TGI: 21.1 µM
UACC-257 melanoma
  GI50: 11.2 µM
  TGI: 24.6 µM
UACC-62 melanoma
  GI50: 5.52 µM
  TGI: 18.8 µM
UO-31 renal
  GI50: 5.76 µM
  TGI: 19.6 µM
